Experimental data from PubChem BioAssay AID180 (DTP/NCI, 2004).
“And” between values parts separate entries of the source, which are not always exact repeats. Equal values may be shown once.

System: BDF1 mice, Adenocarcinoma 755 s.c., tumor weight T/C
Test: NCI In Vivo Anticancer Drug Screen. Data for tumor model Adenocarcinoma 755 (subcutaneous) in B6D2F1 (BDF1) mice
Settings: endpoint: mean tumor weight, schedule: Q01DX011 (ip), higher = larger tumour
Method in brief: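 Values express treated (T) relative to vehicle-dosed control (C) animals, based on survival or tumour size measured after compound treatment of mice bearing a transplanted tumour.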

[1] = dose: 50.0 mg/kg/injection, vehicle: methylcellulose (MC)
[2] = dose: 100.0 mg/kg/injection, vehicle: methylcellulose (MC)
[3] = dose: 50.0 mg/kg/injection, vehicle: carboxymethylcellulose (CMC)
[4] = dose: 100.0 mg/kg/injection, vehicle: carboxymethylcellulose (CMC)
[5] = dose: 15.0 mg/kg/injection, vehicle: carboxymethylcellulose (CMC)
[6] = dose: 12.0 mg/kg/injection, vehicle: methylcellulose (MC)
[7] = dose: 25.0 mg/kg/injection, vehicle: methylcellulose (MC)
[8] = dose: 25.0 mg/kg/injection, vehicle: saline
[9] = dose: 50.0 mg/kg/injection, vehicle: saline
[10] = dose: 100.0 mg/kg/injection, vehicle: saline
[11] = dose: 200.0 mg/kg/injection, vehicle: other

SMILES: C[N+](C)(C)C(C(=O)c1ccccc1)c1ccccc1 (configuration not stated)
- T/C (dose: 10.0 mg/kg/injection, vehicle: carboxymethylcellulose (CMC)): 124 % of control

SMILES: O=C(NCCCl)N1CCN(C(=O)NCCCl)CC1
- T/C [1]: 55 % of control
- T/C [2]: 67 % of control
- T/C (dose: 200.0 mg/kg/injection, vehicle: methylcellulose (MC)): 39 % of control
- T/C (dose: 400.0 mg/kg/injection, vehicle: methylcellulose (MC)): 24 % of control

SMILES: CCCc1c(Cl)nc(Cl)nc1Cl
- T/C (dose: 17.5 mg/kg/injection, vehicle: carboxymethylcellulose (CMC)): 54 % of control
- T/C (dose: 25.0 mg/kg/injection, vehicle: carboxymethylcellulose (CMC)): 85 % of control
- T/C (dose: 35.0 mg/kg/injection, vehicle: carboxymethylcellulose (CMC)): 104 % of control
- T/C [3]: 43 % of control
- T/C [4]: 44 % of control

SMILES: O=C(OCC1OC(n2cnc3c(=S)nc[nH]c32)C(OC(=O)c2ccccc2)C1OC(=O)c1ccccc1)c1ccccc1 (configuration not stated)
- T/C (dose: 8.0 mg/kg/injection, vehicle: carboxymethylcellulose (CMC)): 98 % of control
- T/C [5]: 91 % of control
- T/C (dose: 31.0 mg/kg/injection, vehicle: carboxymethylcellulose (CMC)): 99 % of control
- T/C (dose: 32.0 mg/kg/injection, vehicle: carboxymethylcellulose (CMC)): 53 % of control
- T/C [3]: 53 % of control
- T/C [4]: 7 % of control
- T/C (dose: 125.0 mg/kg/injection, vehicle: carboxymethylcellulose (CMC)): 2 % of control and 6 % of control and 12 % of control
- T/C (dose: 250.0 mg/kg/injection, vehicle: carboxymethylcellulose (CMC)): 1 % of control

SMILES: CC(C)CC(Nc1ncnc2nc[nH]c12)C(=O)O (configuration not stated)
- T/C [6]: 110 % of control
- T/C [7]: 96 % of control
- T/C [1]: 101 % of control
- T/C [2]: 60 % of control

SMILES: C[C@@H]1CN(C(=O)CCBr)[C@@H](C)CN1C(=O)CCBr
- T/C (dose: 113.0 mg/kg/injection, vehicle: carboxymethylcellulose (CMC)): 50 % of control
- T/C (dose: 225.0 mg/kg/injection, vehicle: carboxymethylcellulose (CMC)): 48 % of control
- T/C (dose: 450.0 mg/kg/injection, vehicle: carboxymethylcellulose (CMC)): 57 % of control

SMILES: Cn1c(=O)c2[nH]c(NN)nc2n(C)c1=O
- T/C [7]: 66 % of control

SMILES: O=c1[nH]c(=O)c2[nH]c(N=Nc3ccc(N(CCCl)CCCl)cc3)nc2[nH]1
- T/C [8]: 74 % of control
- T/C [9]: 56 % of control
- T/C [10]: 6 % of control and 19 % of control

SMILES: CNc1ncnc2c1ncn2C1CCCO1 (configuration not stated)
- T/C [9]: 119 % of control
- T/C [10]: 86 % of control
- T/C (dose: 200.0 mg/kg/injection, vehicle: saline): 51 % of control

SMILES: O=C1C(=O)C(Cl)=C(Cl)C(Cl)=C1Cl
- T/C (dose: 7.5 mg/kg/injection, vehicle: carboxymethylcellulose (CMC)): 78 % of control
- T/C [5]: 90 % of control
- T/C (dose: 60.0 mg/kg/injection, vehicle: carboxymethylcellulose (CMC)): 97 % of control

SMILES: c1nc2c3c(n1)ncn3CCN2
- T/C [8]: 85 % of control
- T/C (dose: 75.0 mg/kg/injection, vehicle: saline): 74 % of control
- T/C (dose: 225.0 mg/kg/injection, vehicle: saline): 99 % of control

SMILES: NCC(=O)Nc1ccc(O)cc1
- T/C (dose: 200.0 mg/kg/injection, vehicle: carboxymethylcellulose (CMC)): 22 % of control and 42 % of control

SMILES: COC(=O)c1[nH]c(=O)[nH]c(=O)c1F
- T/C (dose: 3.0 mg/kg/injection, vehicle: methylcellulose (MC)): 72 % of control
- T/C (dose: 6.0 mg/kg/injection, vehicle: methylcellulose (MC)): 63 % of control
- T/C [6]: 91 % of control

SMILES: CN(Cc1cnc2nc(N)nc(N)c2n1)c1ccc(C(=O)N[C@@H](CCC(=O)O)C(=O)O)cc1
- T/C (dose: 0.56 mg/kg/injection, vehicle: carboxymethylcellulose (CMC)): 94 % of control
- T/C (dose: 0.84 mg/kg/injection, vehicle: carboxymethylcellulose (CMC)): 57 % of control
- T/C (dose: 1.0 mg/kg/injection, vehicle: other): 77 % of control
- T/C (dose: 1.05 mg/kg/injection, vehicle: carboxymethylcellulose (CMC)): 48 % of control
- T/C (dose: 1.13 mg/kg/injection, vehicle: carboxymethylcellulose (CMC)): 48 % of control
- T/C (dose: 1.4 mg/kg/injection, vehicle: carboxymethylcellulose (CMC)): 36 % of control
- T/C (dose: 2.0 mg/kg/injection, vehicle: carboxymethylcellulose (CMC)): 49 % of control
- T/C (dose: 2.0 mg/kg/injection, vehicle: other): 43 % of control
- T/C (dose: 2.1 mg/kg/injection, vehicle: carboxymethylcellulose (CMC)): 27 % of control
- T/C (dose: 2.25 mg/kg/injection, vehicle: carboxymethylcellulose (CMC)): 96 % of control
- T/C (dose: 4.5 mg/kg/injection, vehicle: carboxymethylcellulose (CMC)): 48 % of control
- T/C (dose: 263.0 micrograms/kg/injection, vehicle: carboxymethylcellulose (CMC)): 66 % of control
- T/C (dose: 525.0 micrograms/kg/injection, vehicle: carboxymethylcellulose (CMC)): 53 % of control
- T/C (dose: 563.0 micrograms/kg/injection, vehicle: carboxymethylcellulose (CMC)): 63 % of control
- T/C (dose: 1050.0 micrograms/kg/injection, vehicle: carboxymethylcellulose (CMC)): 68 % of control
- T/C (dose: 1125.0 micrograms/kg/injection, vehicle: carboxymethylcellulose (CMC)): 97 % of control
- T/C (dose: 2100.0 micrograms/kg/injection, vehicle: carboxymethylcellulose (CMC)): 31 % of control
- T/C (dose: 2250.0 micrograms/kg/injection, vehicle: carboxymethylcellulose (CMC)): 68 % of control

SMILES: NCC(N)=O
- T/C (dose: 100.0 mg/kg/injection, vehicle: other): 86 % of control
- T/C [11]: 79 % of control
- T/C (dose: 400.0 mg/kg/injection, vehicle: other): 56 % of control

SMILES: N#CSc1ncnc2nc[nH]c12
- T/C (dose: 0.4 mg/kg/injection, vehicle: water): 67 % of control
- T/C (dose: 1.0 mg/kg/injection, vehicle: alkali diluted with saline): 20 % of control and 33 % of control
- T/C (dose: 1.0 mg/kg/injection, vehicle: saline): 10 % of control
- T/C (dose: 1.3 mg/kg/injection, vehicle: water): 8 % of control
- T/C (dose: 1.75 mg/kg/injection, vehicle: water): 4 % of control
- T/C (dose: 2.0 mg/kg/injection, vehicle: alkali diluted with saline): 1 % of control and 11 % of control
- T/C (dose: 2.0 mg/kg/injection, vehicle: saline): 1 % of control
- T/C (dose: 4.0 mg/kg/injection, vehicle: alkali diluted with saline): 2 % of control
- T/C (dose: 4.0 mg/kg/injection, vehicle: saline): 1 % of control
- T/C (dose: 7.0 mg/kg/injection, vehicle: water): 1 % of control
- T/C (dose: 8.0 mg/kg/injection, vehicle: saline): 1 % of control

SMILES: O/N=C1\CCCC\C1=N/O
- T/C [11]: 55 % of control
- T/C (dose: 300.0 mg/kg/injection, vehicle: other): 4 % of control

SMILES: Cc1cnc(SCc2ccccc2Cl)nc1N(C)C
- T/C (dose: 15.0 mg/kg/injection, vehicle: methylcellulose (MC)): 89 % of control
- T/C (dose: 125.0 mg/kg/injection, vehicle: methylcellulose (MC)): 109 % of control

SMILES: Nc1nc(=S)c2[nH]cnc2[nH]1.[Cu+2]
- T/C (dose: 0.62 mg/kg/injection, vehicle: carboxymethylcellulose (CMC)): 98 % of control
- T/C (dose: 1.25 mg/kg/injection, vehicle: carboxymethylcellulose (CMC)): 83 % of control
- T/C (dose: 2.5 mg/kg/injection, vehicle: carboxymethylcellulose (CMC)): 105 % of control
- T/C (dose: 5.0 mg/kg/injection, vehicle: carboxymethylcellulose (CMC)): 59 % of control
